From patent publication US10526373B2, “Peptide showing melanin generation-promoting activity and use thereof” (CAREGEN CO., LTD., priority 2016, dated 2020)
No end group written: not given here.

How the values were obtained:
Type in all cases: cell-based
[1] = test system: melanocytes (B16F10 cell line); assay: Melanogenesis assay; details: mouse melanin cell line B16F10, peptide at different concentrations, 72 hours
Method: After melanocytes (B16F10 cell line) in 6-well plates were cultured in an incubator at 37° C. for 24 hours, the medium of each plate was removed and exchanged with fresh medium, followed by treatment with the present peptide at different concentrations. After the incubation for 72 hours, the culture medium was removed, and the cells were taken off and then transferred into 5-ml tubes, followed by centrifugation at 13,000 rpm for 3 minutes. The supernatant was removed, and cell pellets were collected to observe melanin. Then, 150 μl of 2 M NaOH was added to the cell pellets to lyse intracellular melanin at 60° C. for 30 minutes. Then, 100 μl of the supernatant obtained from the lysis was added into each well of 96-well plates, and the absorbance was measured at 490 nm.

tyrosinase [2] = assay: Tyrosinase activity assay in B16F10 cell lysate (L-dopa); details: mouse melanin cell line B16F10, peptide at different concentrations, 72 hours
Method: Melanoma cell line (B16F10) cells were cultured in 6-well culture plates for 24 hours, and treated with the peptide with difference concentrations, followed by culture for 72 hours. The 6-well culture plates were loaded on ice and washed with cool PBS, and then 300 μl of 0.1 M sodium phosphate buffer (pH 6 lysis buffer) containing 1% Triton X-100 was added. The cells were collected in 1.5-mL tubes, and then cell membranes were disrupted by repeating five times rapid-freezing at […] and thawing. After centrifugation at 13,000 rpm for 20 minutes, the supernatant was collected in other 1.5-mL tubes, and the protein of the samples was quantified. The samples were diluted to have the same protein concentration and then dispensed in every three wells in 96-well culture plates, and then 20 μl of 10 mM L-dopa was added, followed by incubation at 37° C. for 1 hour. The absorbance was measured at 475 nm.

MITF [3] = assay: RT-PCR of melanogenesis-related genes: MITF; details: mouse melanin cell line B16F10, 72 hours
Method: (§1) Melanocytes (B16F10 cell line) were incubated on 6-well culture plates in an incubator for 24 hours, and were treated with the peptides of the present invention with different concentrations. After RNA was extracted from the cells incubated for 72 hours, cDNA was prepared. PCR was performed by using respective primers specific to MITF and tyrosinase, which are the factors involved in melanogenesis, and the expression changes of the respective genes were observed.

tyrosinase [4] = assay: RT-PCR of melanogenesis-related genes: tyrosinase; details: mouse melanin cell line B16F10, 72 hours
Method: as §1

TRP1 = assay: RT-PCR of melanogenesis-related genes: TRP1; details: mouse melanin cell line B16F10, 72 hours
MITF [5] = assay: Western blotting of melanogenesis-related proteins: MITF; details: mouse melanin cell line B16F10, 72-hour incubation
Method: (§2) Melanocytes (B16F10 cell line) were incubated on 6-well culture plates in an incubator for 24 hours, and were treated with the peptides of the present invention with different concentrations. After 72-hour incubation, the cells were lysed, and the cells were subjected to western blotting using specific antibodies (two types, both by Santa Cruz Biotechnology, USA) to investigate the expression of MITF and tyrosinase, which are the factors involved in melanogenesis.

tyrosinase [6] = assay: Western blotting of melanogenesis-related proteins: tyrosinase; details: mouse melanin cell line B16F10, 72-hour incubation
Method: as §2

CREB = assay: Melanogenesis-related protein activity assay (CREB phosphorylation, western blotting); details: mouse melanin cell line B16F10, 72-hour incubation
Method: Melanocytes (B16F10 cell line) were incubated on 6-well culture plates in an incubator for 24 hours, and were treated with the peptide of the present invention with different concentrations. After 72-hour incubation, the cells were lysed, and the cells were subjected to western blotting using specific antibodies (Cell Signaling Technology, USA) to investigate the phosphorylation level of CREB, which is a signaling substance involved in melanogenesis.

RWRRKIEN [SEQ ID NO: 1]
increased: melanogenesis (melanin, absorbance at 490 nm) [1] | tyrosinase activity (absorbance at 475 nm) (tyrosinase [2]) | mRNA expression of MITF (MITF [3]) | mRNA expression of tyrosinase (tyrosinase [4]) | mRNA expression of TRP1 (TRP1) | protein expression of the MITF transcriptional factor (MITF [5]) | protein expression of tyrosinase (tyrosinase [6]) | phosphorylation level of CREB (CREB)

FCLGPCPYIWSL (cysteine pairing not given here) [SEQ ID NO: 2]
increased: melanogenesis (melanin, absorbance at 490 nm) [1] | tyrosinase activity (absorbance at 475 nm) (tyrosinase [2]) | mRNA expression of MITF (MITF [3]) | mRNA expression of tyrosinase (tyrosinase [4]) | mRNA expression of TRP1 (TRP1) | protein expression of tyrosinase (tyrosinase [6])
